Values joined by “and” are separate entries in the source; they are usually repeats but may differ in a detail not shown here. Equal values may be shown once. Read-outs that look alike come from different tables or passages of the source.
Tests used:
CHK1 = CHK1 (Homo sapiens, UniProt O14757); experiment: Z'-LYTE kinase selectivity; format: biochemical
JNK1 = JNK1 (Homo sapiens, UniProt P45983); experiment: Z'-LYTE kinase selectivity; format: biochemical
GSK3 beta = GSK3 beta (Homo sapiens, UniProt P49841); experiment: Z'-LYTE kinase selectivity; format: biochemical
Sequence of GSK3 beta (P49841 whole entry): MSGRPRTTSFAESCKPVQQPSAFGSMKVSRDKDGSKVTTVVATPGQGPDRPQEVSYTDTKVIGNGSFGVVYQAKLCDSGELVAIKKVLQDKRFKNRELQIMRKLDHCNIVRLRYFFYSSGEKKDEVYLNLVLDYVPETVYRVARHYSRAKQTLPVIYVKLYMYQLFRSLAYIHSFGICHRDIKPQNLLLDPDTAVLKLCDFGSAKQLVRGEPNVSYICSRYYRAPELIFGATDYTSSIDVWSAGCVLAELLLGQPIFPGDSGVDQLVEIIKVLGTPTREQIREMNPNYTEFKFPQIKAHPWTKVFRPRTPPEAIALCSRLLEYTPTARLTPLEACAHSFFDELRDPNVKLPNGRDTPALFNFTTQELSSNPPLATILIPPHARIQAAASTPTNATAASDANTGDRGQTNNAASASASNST

PKA = PKA (Homo sapiens, UniProt P17612); experiment: Z'-LYTE kinase selectivity; format: biochemical
LCK = LCK (Homo sapiens, UniProt P06239); experiment: Z'-LYTE kinase selectivity; format: biochemical
[1] = tested on: NCI-H3122 (EML4-ALK) xenograft; experiment: NCI-H3122 cell line-derived xenograft model (tumor volume, body weight); format: in vivo, BALB/c nude mice; settings: for Tumor volume, individual animals: in mm³
Procedure: Female BALB/c nude mice (4–6 weeks old) were provided by Shanghai Sipple-Bikai Laboratory Animal Co., Ltd. and Beijing Vital River Laboratory Animal Technology Co., Ltd. The mice were housed in a specific pathogen-free environment under a 12 h light/dark cycle, and had free access to sterile animal feed and water.
PDX and CDX models were used for in vivo studies. Patient-derived tumors tissues were divided into about 30 mm^3 and transplanted into the right dorsal subcutis. Treatment began when the tumor size reached to 200 mm^3. The mice were randomly assignied into the corresponding dosing groups (9 mice in each group). Drugs were deliverd via daily oral for 4 weeks. Tumor size was measured periodically using a digital caliper (Cal Pro, Sylvac, Switzerland), and tumor volume was calculated as 0.5 × length × width^2. For more detailed information, please refer to Supplementary materials. All procedures and protocols of xenograft models were approved by the Institutional Animal Care and Use Committee of WuXi AppTec.
NCI-H3122 cells were re-suspended with 0.9% sodium chloride, and then 6×10^6 cells in 100 μL was inoculated subcutaneously into the right armpit of nude mice to prepare solid tumor models under sterile conditions. […] Groups were gavaged once daily with the base dose of drug for 21 days. The blank control group was given the same volume of vehicle (sterile water) injection according to the same protocol, with the dose volume of 100 μL/10 g.

TAOK2 = TAOK2 (Homo sapiens, UniProt Q9UL54); experiment: Z'-LYTE kinase selectivity; format: biochemical
[2] = tested on: NCI-H1975 (EGFR^L858R/T790M) cells; experiment: Cell proliferation (CellTiter-Glo); format: cell-based
Procedure: (§1) Cell proliferation assay was performed using methods reported in the previous article. Cell proliferation was measured using the CellTiter-Glo® (CTG) Luminescent Cell Viability Assay (Promega, WI, USA). Cells were seeded in 96-well plates at 15,000 cells per well in detection medium containing 0.5% fetal bovine serum and placed in an incubator at 37℃ and 5% CO2 overnight. On the following day, iruplinalkib was serially diluted with DMSO, further diluted in assay medium, and added to the designated wells for serial dilution of iruplinalkib to the target gradient concentration.

[3] = tested on: NIH-3T3 (CD74-ROS1) cells; experiment: Cell proliferation (CellTiter-Glo); format: cell-based
Procedure: as §1

Ba/F3 cells = experiment: Cell proliferation (CellTiter-Glo); format: cell-based
Procedure: as §1

[4] = tested on: Ba/F3 (SLC34A2-ROS1) cells; experiment: Cell proliferation (CellTiter-Glo); format: cell-based
Procedure: as §1

[5] = tested on: HCC-78 (SLC34A2-ROS1) cells; experiment: Cell proliferation (CellTiter-Glo); format: cell-based
Procedure: as §1

CK1 alpha = CK1 alpha (Homo sapiens, UniProt P48729); experiment: Z'-LYTE kinase selectivity; format: biochemical
INSR = INSR (Homo sapiens, UniProt P06213); experiment: Z'-LYTE kinase selectivity; format: biochemical
DYRK3 = DYRK3 (Homo sapiens, UniProt O43781); experiment: Z'-LYTE kinase selectivity; format: biochemical
Sequence of DYRK3 (O43781 whole entry): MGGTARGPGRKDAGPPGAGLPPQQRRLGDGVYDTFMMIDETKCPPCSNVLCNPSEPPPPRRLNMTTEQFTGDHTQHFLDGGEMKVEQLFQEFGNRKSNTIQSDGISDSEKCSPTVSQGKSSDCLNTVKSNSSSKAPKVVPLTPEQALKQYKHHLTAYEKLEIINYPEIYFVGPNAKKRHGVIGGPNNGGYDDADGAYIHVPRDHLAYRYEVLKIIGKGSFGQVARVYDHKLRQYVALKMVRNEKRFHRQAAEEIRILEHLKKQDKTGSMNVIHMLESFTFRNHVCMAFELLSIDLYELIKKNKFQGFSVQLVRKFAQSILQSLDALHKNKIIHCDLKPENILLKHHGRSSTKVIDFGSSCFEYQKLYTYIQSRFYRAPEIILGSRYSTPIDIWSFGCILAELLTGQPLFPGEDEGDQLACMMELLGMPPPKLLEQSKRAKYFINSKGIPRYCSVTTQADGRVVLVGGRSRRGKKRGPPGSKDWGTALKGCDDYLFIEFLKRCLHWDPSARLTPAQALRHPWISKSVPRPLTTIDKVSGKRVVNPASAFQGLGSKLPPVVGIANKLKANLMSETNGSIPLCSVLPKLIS

TNIK = TNIK (Homo sapiens, UniProt Q9UKE5); experiment: Z'-LYTE kinase selectivity; format: biochemical
KDR = KDR (Homo sapiens, UniProt P35968); experiment: Z'-LYTE kinase selectivity; format: biochemical
PDK1 = PDK1 (Homo sapiens, UniProt O15530); experiment: Z'-LYTE kinase selectivity; format: biochemical; settings: read-out: IC50 PDK1
Sequence of PDK1 (O15530 whole entry): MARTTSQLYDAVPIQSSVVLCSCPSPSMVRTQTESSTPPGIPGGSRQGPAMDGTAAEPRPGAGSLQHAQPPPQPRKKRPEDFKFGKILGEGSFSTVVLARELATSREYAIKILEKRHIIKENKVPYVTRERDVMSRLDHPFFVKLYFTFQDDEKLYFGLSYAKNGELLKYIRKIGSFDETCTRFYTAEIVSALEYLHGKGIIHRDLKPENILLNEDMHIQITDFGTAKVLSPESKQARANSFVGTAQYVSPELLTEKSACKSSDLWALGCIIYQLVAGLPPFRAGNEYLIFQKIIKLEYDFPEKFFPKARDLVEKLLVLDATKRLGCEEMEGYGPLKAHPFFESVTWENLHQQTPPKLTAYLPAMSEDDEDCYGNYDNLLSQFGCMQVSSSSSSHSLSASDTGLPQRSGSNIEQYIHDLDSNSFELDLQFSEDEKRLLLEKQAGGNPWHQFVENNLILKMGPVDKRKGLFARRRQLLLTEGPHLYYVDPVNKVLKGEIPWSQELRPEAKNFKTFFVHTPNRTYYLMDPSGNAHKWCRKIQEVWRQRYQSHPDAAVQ

MAP4K4 = MAP4K4 (Homo sapiens, UniProt O95819); experiment: Z'-LYTE kinase selectivity; format: biochemical
Sequence of MAP4K4 (O95819 whole entry): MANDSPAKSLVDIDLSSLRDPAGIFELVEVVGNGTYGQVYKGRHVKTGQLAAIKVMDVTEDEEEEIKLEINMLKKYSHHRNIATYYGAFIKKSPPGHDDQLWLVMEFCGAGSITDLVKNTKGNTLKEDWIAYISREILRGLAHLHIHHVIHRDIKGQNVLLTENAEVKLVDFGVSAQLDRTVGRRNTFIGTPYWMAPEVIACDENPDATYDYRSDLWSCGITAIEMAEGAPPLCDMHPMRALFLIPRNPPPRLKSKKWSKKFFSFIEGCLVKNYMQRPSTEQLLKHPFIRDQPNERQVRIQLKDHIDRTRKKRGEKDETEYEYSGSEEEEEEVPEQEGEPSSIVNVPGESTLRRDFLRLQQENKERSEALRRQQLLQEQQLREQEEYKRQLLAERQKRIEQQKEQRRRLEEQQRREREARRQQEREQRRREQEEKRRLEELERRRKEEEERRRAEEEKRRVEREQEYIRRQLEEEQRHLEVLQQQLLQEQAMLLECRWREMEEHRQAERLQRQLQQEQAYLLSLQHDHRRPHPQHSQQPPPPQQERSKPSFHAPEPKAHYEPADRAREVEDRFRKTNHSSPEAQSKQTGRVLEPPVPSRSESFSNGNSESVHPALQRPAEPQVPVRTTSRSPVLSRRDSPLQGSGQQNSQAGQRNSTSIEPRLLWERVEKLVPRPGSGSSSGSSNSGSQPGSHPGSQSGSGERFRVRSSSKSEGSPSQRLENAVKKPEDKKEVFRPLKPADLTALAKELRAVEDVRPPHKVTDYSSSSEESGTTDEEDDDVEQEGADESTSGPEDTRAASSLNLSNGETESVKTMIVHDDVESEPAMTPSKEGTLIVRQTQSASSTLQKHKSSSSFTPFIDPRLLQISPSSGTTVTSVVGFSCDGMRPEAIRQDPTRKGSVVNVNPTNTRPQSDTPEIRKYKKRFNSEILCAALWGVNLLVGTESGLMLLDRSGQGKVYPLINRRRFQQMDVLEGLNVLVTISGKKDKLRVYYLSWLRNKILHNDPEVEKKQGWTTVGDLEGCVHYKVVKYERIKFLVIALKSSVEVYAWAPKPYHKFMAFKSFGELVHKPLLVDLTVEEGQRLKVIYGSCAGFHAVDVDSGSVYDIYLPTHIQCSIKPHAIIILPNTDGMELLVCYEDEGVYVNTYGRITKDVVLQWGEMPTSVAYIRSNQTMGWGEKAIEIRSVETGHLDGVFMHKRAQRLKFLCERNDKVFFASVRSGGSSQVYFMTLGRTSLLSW

P-gp = biological target: T1, P-gp (Homo sapiens, UniProt P08183); experiment: ABC efflux transporter inhibitor test on Caco-2 cells (digoxin efflux); format: in vitro ADME
T1 construct: endogenous in cells; host or cells: Caco-2
T1 sequence (P08183 whole entry): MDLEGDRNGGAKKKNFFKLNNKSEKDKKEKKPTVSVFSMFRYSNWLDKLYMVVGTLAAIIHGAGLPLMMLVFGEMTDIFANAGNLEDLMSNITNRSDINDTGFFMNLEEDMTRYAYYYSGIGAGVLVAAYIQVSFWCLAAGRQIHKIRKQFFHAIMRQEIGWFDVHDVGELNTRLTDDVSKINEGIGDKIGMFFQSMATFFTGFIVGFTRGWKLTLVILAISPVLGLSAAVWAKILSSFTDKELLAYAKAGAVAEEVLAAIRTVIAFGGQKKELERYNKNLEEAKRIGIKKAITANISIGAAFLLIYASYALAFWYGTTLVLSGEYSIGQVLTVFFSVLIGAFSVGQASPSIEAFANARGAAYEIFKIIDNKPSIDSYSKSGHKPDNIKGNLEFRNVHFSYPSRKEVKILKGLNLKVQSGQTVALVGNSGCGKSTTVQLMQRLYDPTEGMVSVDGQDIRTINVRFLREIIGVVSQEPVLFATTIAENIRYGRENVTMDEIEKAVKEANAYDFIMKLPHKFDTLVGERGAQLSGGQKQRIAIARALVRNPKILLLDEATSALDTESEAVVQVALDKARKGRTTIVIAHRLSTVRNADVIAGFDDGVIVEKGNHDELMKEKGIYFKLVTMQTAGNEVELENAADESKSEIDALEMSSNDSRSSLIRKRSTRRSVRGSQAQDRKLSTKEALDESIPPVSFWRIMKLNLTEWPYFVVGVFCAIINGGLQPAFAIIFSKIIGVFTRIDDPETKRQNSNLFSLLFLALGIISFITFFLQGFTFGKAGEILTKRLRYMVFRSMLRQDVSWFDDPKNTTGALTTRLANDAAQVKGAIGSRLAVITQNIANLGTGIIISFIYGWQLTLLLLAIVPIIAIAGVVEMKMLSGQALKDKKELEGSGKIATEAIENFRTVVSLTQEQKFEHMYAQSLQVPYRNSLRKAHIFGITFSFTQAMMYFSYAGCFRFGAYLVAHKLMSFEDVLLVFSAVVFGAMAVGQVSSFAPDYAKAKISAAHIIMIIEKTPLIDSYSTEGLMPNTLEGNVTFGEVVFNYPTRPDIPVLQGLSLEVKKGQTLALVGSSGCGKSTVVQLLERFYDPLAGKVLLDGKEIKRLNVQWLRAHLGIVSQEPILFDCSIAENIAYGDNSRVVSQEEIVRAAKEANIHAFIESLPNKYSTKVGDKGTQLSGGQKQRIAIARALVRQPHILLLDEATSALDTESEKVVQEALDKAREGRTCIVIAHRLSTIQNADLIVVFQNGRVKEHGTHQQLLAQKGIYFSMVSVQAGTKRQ

[6] = 5mg/kg PO QD×21, day 0 after administration
[7] = 5mg/kg PO QD×21, day 3 after administration
[8] = 5mg/kg PO QD×21, day 6 after administration
[9] = 5mg/kg PO QD×21, day 9 after administration
[10] = 5mg/kg PO QD×21, day 13 after administration
[11] = 5mg/kg PO QD×21, day 16 after administration
[12] = 5mg/kg PO QD×21, day 20 after administration
[13] = 2.5mg/kg PO QD×21, day 0 after administration
[14] = 2.5mg/kg PO QD×21, day 3 after administration
[15] = 2.5mg/kg PO QD×21, day 6 after administration
[16] = 2.5mg/kg PO QD×21, day 9 after administration
[17] = 2.5mg/kg PO QD×21, day 13 after administration
[18] = 2.5mg/kg PO QD×21, day 16 after administration
[19] = 2.5mg/kg PO QD×21, day 20 after administration
[20] = human, Caco-2 cells, probe digoxin (5 µM), read-out: Exhaust inhibition rate (%)

Sequence of JNK1 (P45983 whole entry): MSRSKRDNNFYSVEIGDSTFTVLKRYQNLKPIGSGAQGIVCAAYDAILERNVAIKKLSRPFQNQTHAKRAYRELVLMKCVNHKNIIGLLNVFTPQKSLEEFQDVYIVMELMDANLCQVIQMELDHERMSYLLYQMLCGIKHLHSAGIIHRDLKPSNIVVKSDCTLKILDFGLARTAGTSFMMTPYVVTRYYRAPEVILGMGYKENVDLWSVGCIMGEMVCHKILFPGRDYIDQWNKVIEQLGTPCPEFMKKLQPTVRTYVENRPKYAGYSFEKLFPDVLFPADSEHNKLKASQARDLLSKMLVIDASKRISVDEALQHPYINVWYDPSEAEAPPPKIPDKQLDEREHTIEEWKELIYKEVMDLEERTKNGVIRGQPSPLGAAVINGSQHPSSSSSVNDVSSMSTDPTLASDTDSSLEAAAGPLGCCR
Sequence of CHK1 (O14757 whole entry): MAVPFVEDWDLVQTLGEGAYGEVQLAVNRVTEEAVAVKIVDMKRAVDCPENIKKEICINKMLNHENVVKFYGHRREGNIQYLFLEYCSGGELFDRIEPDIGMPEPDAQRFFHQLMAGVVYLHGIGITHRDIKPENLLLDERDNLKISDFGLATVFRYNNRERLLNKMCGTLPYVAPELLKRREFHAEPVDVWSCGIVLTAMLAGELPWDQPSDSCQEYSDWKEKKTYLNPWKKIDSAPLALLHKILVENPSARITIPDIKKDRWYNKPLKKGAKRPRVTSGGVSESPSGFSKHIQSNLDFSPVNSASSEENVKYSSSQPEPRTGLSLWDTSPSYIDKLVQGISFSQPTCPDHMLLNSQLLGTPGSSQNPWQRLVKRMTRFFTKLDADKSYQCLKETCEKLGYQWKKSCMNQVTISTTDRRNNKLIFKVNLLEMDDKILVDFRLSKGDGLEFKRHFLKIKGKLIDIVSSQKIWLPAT

With `COc1cc(N2CCC(N3CCN(C)CC3)CC2)ccc1Nc1ncc(Cl)c(Nc2ccccc2P(C)(C)=O)n1` [Brigatinib, reference compound] the IC50 (CHK1) was 0.07 ± 0.032 µM, the IC50 (JNK1) was 1.52 ± 0.733 µM and the IC50 (GSK3 beta) was > 10 µM. For the same compound, the IC50 (PKA) was > 10 µM, the IC50 (LCK) was 0.444 ± 0.084 µM and the Tumor volume Mean [1, 6] was 174 mm³. For the same compound, the “Tumor volume, individual animals” value [1, 6] was 116 and 221 and 152 and 134 and 154 and 194 and 207 and 229, the Tumor volume Mean [1, 7] was 252 mm³ and the “Tumor volume, individual animals” value [1, 7] was 235 and 195 and 320 and 239 and 193 and 260 and 247 and 262 and 319. For the same compound, the Tumor volume Mean [1, 8] was 352 mm³, the “Tumor volume, individual animals” value [1, 8] was 344 and 246 and 444 and 301 and 248 and 364 and 372 and 370 and 474 and the Tumor volume Mean [1, 9] was 461 mm³. For the same compound, the “Tumor volume, individual animals” value [1, 9] was 473 and 337 and 548 and 418 and 289 and 518 and 482 and 535 and 555, the Tumor volume Mean [1, 10] was 502 mm³ and the “Tumor volume, individual animals” value [1, 10] was 454 and 241 and 654 and 480 and 315 and 575 and 637 and 495 and 666. The Tumor volume Mean [1, 11] was 547 mm³, the “Tumor volume, individual animals” value [1, 11] was 521 and 320 and 707 and 541 and 350 and 627 and 656 and 464 and 737 and the Tumor volume Mean [1, 12] was 612 mm³. For the same compound, the “Tumor volume, individual animals” value [1, 12] was 710 and 414 and 729 and 637 and 412 and 711 and 707 and 501 and 687, the IC50 (TAOK2) was 0.964 ± 0.048 µM and the IC50 [2] was 0.479 ± 0.11 µM. For the same compound, the IC50 [3] was 0.469 µM, the IC50 (Ba/F3 cells; read-out: IC50 BaF3) was 2.12 ± 0.023 µM and the IC50 ([4]; read-out: IC50 BaF3 SLC34A2-ROS1) was 0.00649 µM. For the same compound, the IC50 [5] was 0.425 µM, the IC50 (CK1 alpha) was > 10 µM and the IC50 (INSR) was 0.626 ± 0.304 µM. For the same compound, the IC50 (DYRK3) was > 10 µM, the IC50 (TNIK) was 2.37 ± 1.33 µM and the IC50 (KDR) was 0.178 ± 0.052 µM. For the same compound, the IC50 (PDK1) was > 10 µM and the IC50 (MAP4K4) was 1.68 ± 0.762 µM.

For `COc1cc(N2CCC3(CCN(C)CC3)CC2)ccc1Nc1ncc(Cl)c(Nc2ccccc2P(C)(C)=O)n1` [Iruplinalkib], the IC50 (CHK1) was 0.185 ± 0.041 µM, the IC50 (JNK1) was 2.04 ± 1.17 µM and the IC50 (GSK3 beta) was > 10 µM. The IC50 (PKA) was > 10 µM, the IC50 (LCK) was 0.825 ± 0.243 µM and the Tumor volume Mean [1, 13] was 176 mm³. For the same compound, the “Tumor volume, individual animals” value [1, 13] was 188 and 164 and 230 and 150 and 236 and 136 and 182 and 147, the Tumor volume Mean [1, 14] was 295 mm³ and the “Tumor volume, individual animals” value [1, 14] was 324 and 257 and 368 and 284 and 366 and 229 and 267 and 234. The Tumor volume Mean [1, 15] was 449 mm³, the “Tumor volume, individual animals” value [1, 15] was 431 and 392 and 594 and 476 and 695 and 327 and 410 and 337 and 384 and the Tumor volume Mean [1, 16] was 606 mm³. For the same compound, the “Tumor volume, individual animals” value [1, 16] was 596 and 541 and 738 and 570 and 1128 and 398 and 498 and 499 and 486, the Tumor volume Mean [1, 17] was 694 mm³ and the “Tumor volume, individual animals” value [1, 17] was 630 and 635 and 849 and 718 and 1127 and 586 and 573 and 580 and 545. For the same compound, the Tumor volume Mean [1, 18] was 887 mm³, the “Tumor volume, individual animals” value [1, 18] was 729 and 821 and 1141 and 926 and 1167 and 805 and 883 and 751 and 758.9 and the Tumor volume Mean [1, 19] was 972 mm³. The “Tumor volume, individual animals” value [1, 19] was 760 and 976 and 1087 and 1021 and 1125 and 811 and 1040 and 1032 and 895, the Tumor volume Mean [1, 6] was 177 mm³ and the “Tumor volume, individual animals” value [1, 6] was 233 and 239 and 173 and 121 and 155 and 235. For the same compound, the Tumor volume Mean [1, 7] was 260 mm³, the “Tumor volume, individual animals” value [1, 7] was 306 and 299 and 256 and 223 and 292 and 296 and the Tumor volume Mean [1, 8] was 371 mm³. The “Tumor volume, individual animals” value [1, 8] was 537 and 487 and 339 and 249 and 357 and 438, the Tumor volume Mean [1, 9] was 430 mm³ and the “Tumor volume, individual animals” value [1, 9] was 567 and 541 and 407 and 332 and 403 and 534. For the same compound, the Tumor volume Mean [1, 10] was 531 mm³, the “Tumor volume, individual animals” value [1, 10] was 666 and 699 and 523 and 388 and 515 and the Tumor volume Mean [1, 11] was 624 mm³. For the same compound, the “Tumor volume, individual animals” value [1, 11] was 718 and 880 and 646 and 506 and 603, the Tumor volume Mean [1, 12] was 727 mm³ and the “Tumor volume, individual animals” value [1, 12] was 811 and 875 and 702 and 717 and 714. It also gave a Tumor volume Mean ([1]; 10mg/kg PO QD×21, day 0 after administration) of 174 mm³, a Tumor volume Mean ([1]; 10mg/kg PO QD×21, day 3 after administration) of 190 mm³ and a Tumor volume Mean ([1]; 10mg/kg PO QD×21, day 6 after administration) of 204 mm³. The Tumor volume Mean ([1]; 10mg/kg PO QD×21, day 9 after administration) was 240 mm³, the Tumor volume Mean ([1]; 10mg/kg PO QD×21, day 13 after administration) was 243 mm³ and the Tumor volume Mean ([1]; 10mg/kg PO QD×21, day 16 after administration) was 218 mm³. It also gave a Tumor volume Mean ([1]; 10mg/kg PO QD×21, day 20 after administration) of 233 mm³, an IC50 (TAOK2) of 1.5 ± 0.442 µM and an IC50 ([2]; Homo sapiens, NCI-H1975) of 0.508 ± 0.096 µM. It also gave an IC50 ([3]; Mus musculus, NIH3T3) of 0.343 µM, an IC50 (Ba/F3 cells; Mus musculus, BaF3) of 2.21 ± 0.094 µM and an IC50 ([4]; Mus musculus, BaF3) of 0.00405 µM. For the same compound, the IC50 ([5]; Homo sapiens, HCC78) was 0.228 µM, the IC50 (CK1 alpha) was > 10 µM and the “P-gp inhibitor” value (P-gp; Caco-2) was “strong inhibitor”. The inhibition at 0.1 μM (P-gp; [20]) was -30.9%, the inhibition at 0.3 μM (P-gp; [20]) was 3.97% and the inhibition at 1 μM (P-gp; [20]) was -13.2%. It also gave an inhibition at 3 μM (P-gp; [20]) of -19.1%, an inhibition at 10 µM (P-gp; [20]) of 89.8% and an inhibition at 30 μM (P-gp; [20]) of 98.7%. The IC50 (INSR) was 0.699 ± 0.261 µM, the IC50 (DYRK3) was 8.01 ± 0.583 µM and the IC50 (TNIK) was 3.21 ± 1.54 µM. For the same compound, the IC50 (KDR; read-out: IC50 KDR) was 0.26 ± 0.128 µM, the IC50 (PDK1) was > 10 µM and the IC50 (MAP4K4) was 1.84 ± 0.679 µM.

Reference: PMC10140010 (Investigational New Drugs, 2023)
